Here are results for 35 compounds from patent US9688684B2, “Substituted tetrazolo[1,5-a]pyrazines as ROR-gamma inhibitors” (Merck Patent GmbH, priority 2013, dated 2017).

Broadly, the IC50 is the concentration at which inhibition is half-maximal. Higher therefore signals weaker potency.

This assay deals with human RORγ ligand binding domain (GST-hRORγ-LBD) (Homo sapiens (Human), UniProt P51449). The assay can be described thus: TR-FRET assay (biochemical cofactor interaction assay, GST-hRORγ-LBD / TRAP220 peptide). From the text: RORγ is an orphan member of the nuclear receptor (NR) family displaying constitutive activity. The activity of nuclear receptors can be modulated by ligand-induced cofactor protein interactions. For example, agonist binding leads to recruitment of coactivator protein, and antagonist binding either blocks coactivator interaction or facilitates the recruitment of corepressors. […] The conformational change induced by ligand binding influences interactions with LXXLL motif peptides.
Chain of human RORγ ligand binding domain (GST-hRORγ-LBD) (P51449 269-508): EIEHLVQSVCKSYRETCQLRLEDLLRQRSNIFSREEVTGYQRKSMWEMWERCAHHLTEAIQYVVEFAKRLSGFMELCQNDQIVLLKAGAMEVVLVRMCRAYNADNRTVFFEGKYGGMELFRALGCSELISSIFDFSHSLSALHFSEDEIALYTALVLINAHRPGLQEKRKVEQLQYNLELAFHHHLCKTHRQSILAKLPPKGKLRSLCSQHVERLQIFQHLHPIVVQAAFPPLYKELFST
RORγ (t) is a thymus-specific isoform of RORγ which is widely expressed. It shares the same ligand binding domain (LBD) sequence with RORγ. Thus, a screen using the LBD will yield antagonists targeting both RORγ and RORγt.
In order to identify compounds which block activity of the human nuclear receptor Retinoid-related Orphan Receptor gamma (RORγ) a biochemical cofactor interaction assay based on the TR-FRET principle is performed. […] The ligand-binding domain (LBD) of RORγ is expressed as fusion protein with GST in […] cells using the vector pDEST15. Cells are lysed by lysozyme-treatment and sonication, and the fusion proteins purified over glutathione sepharose (Pharmacia) according to the manufacturers instructions. The strong constitutive interaction is disrupted upon binding of functional antagonists. The strength of the interaction is monitored by TR-FRET between streptavidine APC interacting with the biotinylated peptide and Europium-labelled Anti-GST.
On the technique in general: TR-FRET usually uses a lanthanide donor and a delayed reading to cut background.
`Fc1ccc(C2c3nnnn3CCN2Cc2cccc(Br)c2)cc1` (single isomer, unassigned) [Compound 96-b, 7-(3-Bromo-benzyl)-8-(4-fluoro-phenyl)-5,6,7,8-tetrahydro-tetrazolo[1,5-a]pyrazine]: the half-maximal inhibitory concentration (IC50) was 9.9 to 40 µM.

With `Cc1nn(C)c(C)c1CN1CCn2nnnc2C1c1cn(-c2ccccc2)nc1C(C)C` (centres unmarked) [Compound 157, 8-(3-Isopropyl-1-phenyl-1H-pyrazol-4-yl)-7-(1,3,5-trimethyl-1H-pyrazol-4-ylmethyl)-5,6,7,8-tetrahydro-tetrazolo[1,5-a]pyrazine], the concentration for half-maximal inhibition (IC50) lay in the range of 9.9 to 40 µM.

`CN(C)c1ccc(C2c3nnnn3CCN2CC2CCCCC2)cc1` (centres unmarked) [Compound 19, [4-(7-Cyclohexylmethyl-5,6,7,8-tetrahydro-tetrazolo[1,5-a]pyrazin-8-yl)-phenyl]-dimethyl-amine] gave an IC50 of 9.9 to 40 µM.

For `CN(C)c1ccc(CN2CCn3nnnc3C2C2CCCCC2)cc1` (centres unmarked) [Compound 66, [4-(8-Cyclohexyl-5,6-dihydro-8H-tetrazolo[1,5-a]pyrazin-7-ylmethyl)-phenyl]-dimethyl-amine], the half-inhibitory concentration (IC50) lay in the range of 9.9 to 40 µM.

`Cc1cccc(CN2CCn3nnnc3C2c2ccccn2)c1` (centres unmarked) [Compound 86, 7-(3-Methyl-benzyl)-8-pyridin-2-yl-5,6,7,8-tetrahydro-tetrazolo[1,5-a]pyrazine] came in with a 50% inhibitory concentration (IC50) of 9.9 to 40 µM.

The compound `Fc1cccc(CN2CCn3nnnc3C2c2cccc(F)c2F)c1F` (centres unmarked) [Compound 79, 7-(2,3-Difluoro-benzyl)-8-(2,3-difluoro-phenyl)-5,6,7,8-tetrahydro-tetrazolo[1,5-a]pyrazine] showed a half-inhibitory concentration (IC50) of 9.9 to 40 µM.

Turning to `Fc1ccc(F)c(CN2CCn3nnnc3C2c2cccc(F)c2F)c1` (centres unmarked) [Compound 74, 7-(2,5-Difluoro-benzyl)-8-(2,3-difluoro-phenyl)-5,6,7,8-tetrahydro-tetrazolo[1,5-a]pyrazine], the half-maximal inhibitory concentration (IC50) was 9.9 to 40 µM.

`Cc1cccc(CN2CCn3nnnc3C2c2ccc(F)cc2)c1` (single isomer, unassigned) [Compound 93-b, 8-(4-Fluoro-phenyl)-7-(3-methyl-benzyl)-5,6,7,8-tetrahydro-tetrazolo[1,5-a]pyrazine]: the IC50 was 9.9 to 40 µM.

Consider `C1CCC(CN2CCn3nnnc3C2C2CCCCC2)CC1` (centres unmarked) [Compound 69, 8-Cyclohexyl-7-cyclohexylmethyl-5,6,7,8-tetrahydro-tetrazolo[1,5-a]pyrazine], for which the IC50 lay within 9.9 to 40 µM.

`COc1ccc(OC)c(CN2CCn3nnnc3C2c2ccc(OC(C)C)cc2)c1` (centres unmarked) [Compound 1, 7-(2,5-Dimethoxy-benzyl)-8-(4-isopropoxy-phenyl)-5,6,7,8-tetrahydro-tetrazolo[1,5-a]pyrazine]: the concentration for half-maximal inhibition (IC50) lay within 9.9 to 40 µM.

For `CCn1cc(CN2CCn3nnnc3C2c2cn(-c3ccccc3)nc2C(C)C)cn1` (centres unmarked) [Compound 155, 7-(1-Ethyl-1H-pyrazol-4-ylmethyl)-8-(3-isopropyl-1-phenyl-1H-pyrazol-4-yl)-5,6,7,8-tetrahydro-tetrazolo[1,5-a]pyrazine], the IC50 lay within 9.9 to 40 µM.

Compound `COc1ccc(OC)c(C2c3nnnn3CCN2Cc2cn(-c3ccccc3)nc2C(C)C)c1` (centres unmarked) [Compound 13, 8-(2,5-Dimethoxy-phenyl)-7-(3-isopropyl-1-phenyl-1H-pyrazol-4-ylmethyl)-5,6,7,8-tetrahydro-tetrazolo[1,5-a]pyrazine] registered an IC50 of 9.9 to 40 µM.

Take `Brc1cccc(C2c3nnnn3CCN2CC2CCCCC2)c1` (centres unmarked) [Compound 9, 8-(3-Bromo-phenyl)-7-cyclohexylmethyl-5,6,7,8-tetrahydro-tetrazolo[1,5-a]pyrazine]: the concentration for half-maximal inhibition (IC50) lay in the range of 9.9 to 40 µM.

Take `CC(C)Oc1ccc(CN2CCn3nnnc3C2C2CCCCC2)cc1` (centres unmarked) [Compound 64, 8-Cyclohexyl-7-(4-isopropoxy-benzyl)-5,6,7,8-tetrahydro-tetrazolo[1,5-a]pyrazine]: the half-maximal inhibitory concentration (IC50) lay within 9.9 to 40 µM.

The compound `O=C(c1cccc(Br)c1)N1CCn2nnnc2C1c1cccc(F)c1` (centres unmarked) [Compound 82, (3-Bromo-phenyl)-[8-(3-fluoro-phenyl)-5,6-dihydro-8H-tetrazolo[1,5-a]pyrazin-7-yl]-methanone] showed a 50% inhibitory concentration (IC50) of 9.9 to 40 µM.

Turning to `CC(C)Oc1ccc(C2c3nnnn3CCN2CC2CCCCC2)cc1` (centres unmarked) [Compound 3, 7-Cyclohexylmethyl-8-(4-isopropoxy-phenyl)-5,6,7,8-tetra hydro-tetrazolo[1,5-a]pyrazine], the IC50 fell in the range of 9.9 to 40 µM.

The compound `Fc1ccc(CN2CCn3nnnc3C2c2cccc(F)c2)cc1` (single isomer, unassigned) [Compound 91-a, 7-(4-Fluoro-benzyl)-8-(3-fluoro-phenyl)-5,6,7,8-tetrahydro-tetrazolo[1,5-a]pyrazine] yielded a half-maximal inhibitory concentration (IC50) of 9.9 to 40 µM.

As for `CC(C)c1nn(-c2ccccc2)cc1CN1CCn2nnnc2C1c1ccc(F)cc1` (centres unmarked) [Compound 11, 8-(4-Fluoro-phenyl)-7-(3-isopropyl-1-phenyl-1H-pyrazol-4-ylmethyl)-5,6,7,8-tetrahydro-tetrazolo[1,5-a]pyrazine], the IC50 lay in the range of 9.9 to 40 µM.

`COc1ccc(C2c3nnnn3CCN2Cc2cn(-c3ccccc3)nc2C(C)C)cc1` (centres unmarked) [Compound 5, 7-(3-Isopropyl-1-phenyl-1H-pyrazol-4-ylmethyl)-8-(4-methoxy-phenyl)-5,6,7,8-tetrahydro-tetrazolo[1,5-a]pyrazine]: the 50% inhibitory concentration (IC50) was in the range of 9.9 to 40 µM.

On to `COc1ccc(OC)c(C2c3nnnn3CCN2Cc2cccc(F)c2F)c1` (centres unmarked) [Compound 151, 7-(2,3-Difluoro-benzyl)-8-(2,5-dimethoxy-phenyl)-5,6,7,8-tetrahydro-tetrazolo[1,5-a]pyrazine], for which the IC50 is 9.9 to 40 µM.

`COc1ccc(CN2CCn3nnnc3C2c2ccccc2F)cc1` (centres unmarked) [Compound 22, 8-(2-Fluoro-phenyl)-7-(4-methoxy-benzyl)-5,6,7,8-tetrahydro-tetrazolo[1,5-a]pyrazine] displayed an IC50 of 9.9 to 40 µM.

For `Fc1ccc(F)c(CN2CCn3nnnc3C2c2cc(F)ccc2F)c1` (centres unmarked) [Compound 32, 7-(2,5-Difluoro-benzyl)-8-(2,5-difluoro-phenyl)-5,6,7,8-tetrahydro-tetrazolo[1,5-a]pyrazine], the IC50 was 9.9 to 40 µM.

As for `Cc1cccc(CN2CCn3nnnc3C2c2cn(-c3ccccc3)nc2C(C)C)c1` (centres unmarked) [Compound 57, 8-(3-Isopropyl-1-phenyl-1H-pyrazol-4-yl)-7-(3-methyl-benzyl)-5,6,7,8-tetrahydro-tetrazolo[1,5-a]pyrazine], the IC50 is 9.9 to 40 µM.

As for `CCOc1ccc(C2c3nnnn3CCN2CC2CCCCC2)cc1` (centres unmarked) [Compound 44, 7-Cyclohexylmethyl-8-(4-ethoxy-phenyl)-5,6,7,8-tetrahydro-tetrazolo[1,5-a]pyrazine], the half-maximal inhibitory concentration (IC50) lay within 9.9 to 40 µM.

On to `CCOc1ccc(C2c3nnnn3CCN2Cc2cccc(F)c2F)cc1` (centres unmarked) [Compound 45, 7-(2,3-Difluoro-benzyl)-8-(4-ethoxy-phenyl)-5,6,7,8-tetrahydro-tetrazolo[1,5-a]pyrazine], for which the IC50 was 9.9 to 40 µM.

`Fc1ccc(F)c(C2c3nnnn3CCN2Cc2cccc(F)c2F)c1` (centres unmarked) [Compound 35, 7-(2,3-Difluoro-benzyl)-8-(2,5-difluoro-phenyl)-5,6,7,8-tetrahydro-tetrazolo[1,5-a]pyrazine] returned an IC50 of 9.9 to 40 µM.

`CN(C)c1ccc(C2c3nnnn3CCN2Cc2cc(F)ccc2F)cc1` (centres unmarked) [Compound 16, {4-[7-(2,5-Difluoro-benzyl)-5,6,7,8-tetrahydro-tetrazolo[1,5-a]pyrazin-8-yl]-phenyl}-dimethyl-amine]: the IC50 fell in the range of 9.9 to 40 µM.

Regarding `c1csc(CN2CCn3nnnc3C2c2cccs2)c1` (centres unmarked) [Compound 47, 8-Thiophen-2-yl-7-thiophen-2-ylmethyl-5,6,7,8-tetrahydro-tetrazolo[1,5-a]pyrazine], the IC50 is 9.9 to 40 µM.

For the compound `Cn1ccc(CN2CCn3nnnc3C2c2ccc(F)cc2)n1` (centres unmarked) [Compound 85, 8-(4-Fluoro-phenyl)-7-(1-methyl-1H-pyrazol-3-ylmethyl)-5,6,7,8-tetrahydro-tetrazolo[1,5-a]pyrazine], the IC50 lay in the range of 9.9 to 40 µM.

`CN(C)c1ccc(C2c3nnnn3CCN2Cc2cccc(F)c2F)cc1` (centres unmarked) [Compound 20, {4-[7-(2,3-Difluoro-benzyl)-5,6,7,8-tetrahydro-tetrazolo[1,5-a]pyrazin-8-yl]-phenyl}-dimethyl-amine] returned a concentration for half-maximal inhibition (IC50) of 9.9 to 40 µM.

In turn, `Cc1cccc(C2c3nnnn3CCN2Cc2cn(-c3ccccc3)nc2C(C)C)c1` (centres unmarked) [Compound 27, 7-(3-Isopropyl-1-phenyl-1H-pyrazol-4-ylmethyl)-8-m-tolyl-5,6,7,8-tetrahydro-tetrazolo[1,5-a]pyrazine] returned an IC50 of 9.9 to 40 µM.

For the compound `CCOc1ccc(C2c3nnnn3CCN2Cc2cn(-c3ccccc3)nc2C(C)C)cc1` (centres unmarked) [Compound 43, 8-(4-Ethoxy-phenyl)-7-(3-isopropyl-1-phenyl-1H-pyrazol-4-ylmethyl)-5,6,7,8-tetrahydro-tetrazolo[1,5-a]pyrazine], the half-inhibitory concentration (IC50) lay within 9.9 to 40 µM.

The compound `CC(C)c1nn(-c2ccccc2)cc1C1c2nnnn2CCN1Cc1ccn[nH]1` (centres unmarked) [Compound 153, 8-(3-Isopropyl-1-phenyl-1H-pyrazol-4-yl)-7-(2H-pyrazol-3-ylmethyl)-5,6,7,8-tetrahydro-tetrazolo[1,5-a]pyrazine] returned an IC50 of 9.9 to 40 µM.

`Cc1cccc(CN2CCn3nnnc3C2c2ccncc2)c1` (centres unmarked) [Compound 87, 7-(3-Methyl-benzyl)-8-pyridin-4-yl-5,6,7,8-tetrahydro-tetrazolo[1,5-a]pyrazine] came in with an IC50 of 9.9 to 40 µM.

Turning to `CCOc1ccc(CN2CCn3nnnc3C2C2CCCCC2)cc1` (centres unmarked) [Compound 67, 8-Cyclohexyl-7-(4-ethoxy-benzyl)-5,6,7,8-tetrahydro-tetrazolo[1,5-a]pyrazine], the IC50 is 9.9 to 40 µM.
